# Assay results reported in EP4714462A1, “COMPOSITION COMPRISING GV1001 FOR PREVENTING OR TREATING MACULAR DEGENERATION” (Gemvax & Kael Co., Ltd., priority 2023, dated 2024).
# Experiments:
# [1] = system: retinal pigment epithelial cell line ARPE-19; test: Reduction of reactive oxygen species (DCF-DA fluorescence microscopy) in H2O2-treated retinal pigment epithelial cells; assay type: cell-based; conditions: ARPE-19, H2O2 50 µM; metformin 1 mM (positive control)
# Source text: (§1) Reactive oxygen species were generated by treating retinal pigment epithelial cell line ARPE-19 with hydrogen peroxide (H2O2).
# [2] = system: retinal pigment epithelial cell line ARPE-19; test: Epithelial-mesenchymal transition (cadherin 1 / vimentin, confocal microscopy) in H2O2-treated retinal pigment epithelial cells; assay type: cell-based; conditions: ARPE-19, H2O2 50 µM; metformin 1 mM (positive control)
# Source text: as §1
# [3] = system: mouse model of age-related macular degeneration; test: Short-term administration in NaIO3 mouse model of age-related macular degeneration (phalloidin-stained RPE/choroid flat mount); assay type: in vivo, C57BL/6 mice; conditions: NaIO3 20 mg/kg IV; metformin 4 mg/mL in drinking water for 7 days before NaIO3
# Source text: Mice injected with sodium iodate (NaIO3) are used as a representative model of age-related macular degeneration. A mouse model of age-related macular degeneration was established by injecting NaIO3 into C57BL/6 mice, thereby inducing oxidative stress specific to retinal pigment epithelial cells and causing damage.
compound,measurement,setting,value
CN(C)C(=N)N=C(N)N [metformin],DCF-DA fluorescence intensity,[1],decreased
same,epithelial-mesenchymal transition,[2],reduced
same,tight junction structure,[3],maintained
